Test results as given in patent US9345682B2, “Inhibition of STAT3 signal transduction for human cancer therapy” (University of South Florida, priority 1999, dated 2016).

Columns and labels:
STAT3 = test: EMSA of constitutive STAT3 DNA-binding activity in MDA-MB-468 breast carcinoma cells; format: cell-based, human; settings: MDA-MB-468 cells; dose-dependent
Experimental: (§1) FIG. 6: Src and JAK Inhibitors Block Growth and STAT3 Activation in Breast Carcinoma Cells. MDA-MD-468 cells are treated with inhibitors of EGF receptor (PD158780), Src (PD180970), or JAKs (AG490), and effects on cell growth (Panel A) and STAT3 DNA-binding activity (Panel B) are determined.
STAT DNA-binding activity in human breast cancer cell lines is examined by electrophoretic mobility shift assays (EMSA) (Garcia et al., 1997, Cell Growth Diff. 8:1267-1276). In these experiments, EMSAs are performed using the ^32P-labeled sis-inducible element (SIE) as a probe to detect STAT DNA-binding activity in nuclear extracts of cells. This synthetic DNA oligonucleotide probe is a high-affinity mutant of the c-fos SIE, called hSIE, that binds both STAT1 and STAT3 (Yu, et al., 1995, Science 269:81-83). […] This activation is constitutive and occurs in the absence of exogenous EGF stimulation. By contrast, STAT3 activation is not detected in any of the three cell lines derived from normal breast tissue.
(§2) The involvement of these, and other, tyrosine kinases in STAT3 activation is tested using specific inhibitors of JAK family kinases, and the EGF receptor and Src family kinases.

MDA-MB-468 cells = test: Cell growth of MDA-MB-468 breast carcinoma cells; format: cell-based, human
Experimental: as §1, §2

[1] = parameters: species or system mice; settings: mouse, in vivo
Experimental: FIG. 7: AG490 Blocks Tumorigenicity of Breast Carcinoma Cells. Nude mice are engrafted with MDA-MB-468 tumor cells, and then treated with AG490 by mini-pump infusion (42 mpk) and daily intraperitoneal injections (50 mpk).
AG490 is administered by continuous infusion using subcutaneous mini-pumps supplemented with intraperitoneal injections.

Bcl-xL = Bcl-xL expression (RT-PCR, Western blot) in U266 cells; format: cell-based, human; parameters: dose or concentration left out as unconfirmed
Experimental: Cells are lysed in a buffer composed of 50 mM Tris-Cl, pH 7.4, 5 mM EDTA, 150 mM NaCl, and 0.5% Triton-X 100 containing 1 mg/ml leupeptin and aprotinin, and 1 mM PMSF. Protein content of the cell lysates is quantified by the Bradford assay (Bio-Rad), and […] total protein is dissolved in Laemmli SDS-PAGE sample buffer prior to separation by 10% SDS-PAGE. Proteins are transferred to PVDF membrane and Western blot analysis is performed by standard techniques with ECL detection (Amersham). The Bcl-xL antibody, clone 124 (Dako), is used at a 1:2000 dilution. The Bcl-xL, antibody, clone S-18 (Santa Cruz Biotechnology), is used at a 1:500 dilution. Blots are quantified by densitometry and expression levels were normalized to b-actin (Sigma).
Total RNA is isolated by lysis in guanidine isothiocyanate followed by centrifugation through a cesium chloride gradient. cDNA is prepared from 200 ng of total RNA in a […] reaction with AMV-RT (Boehringer-Mannheim). […] Tem ml of PCR products are electrophoresed on a 5% acrylamide gel and quantified by phosphorimaging using ImageQuant software (Molecular Dynamics).

[2] = test system: Bcl-xL overexpressing U266 cells; test: Drug-induced apoptosis in U266 cells overexpressing Bcl-xL; format: cell-based, human; settings: stable U266 clones overexpressing Bcl-xL; 24 h for melphalan and mitoxantrone
Experimental: FIG. 23 Enforced Overexpression of Bcl-x Confers Resistance to Chemotherapy. Panel A: U266 cells are transfected with a CMV expression vector encoding Bcl-x, tagged with the FLAG epitope. Several stable, independent clones overexpressing Bcl-xL, as well as empty vector controls (Neo), are isolated and analyzed by Western blot with antibodies to Bcl-xL, or the FLAG epitope tag. B: The indicated cell lines are incubated with either melphalan (LPAM) or mitoxantrone for 24 h, and apoptosis is monitored by AnnexinV-FITC staining and flow cytometry. Overexpression of Bcl-xL protects the cells from chemotherapy-induced apoptosis.
These Bcl-xL overexpressing cells are resistant to apoptosis induced by AG490, as predicted since the ectopic Bcl-xL is expressed from a CMV promoter and is thus independent of JAK-STAT signaling. […] These findings support one embodiment of the present invention, that Bcl-x confers resistance to chemotherapy-induced apoptosis, and therefore that inhibition of STAT3 signaling promotes chemotherapy-induced apoptosis.

MOPC tumors = test: MOPC myeloma tumor growth in vivo; parameters: species or system BALB/c mice
Experimental: Mice and tumor formation in vivo. Six- to eight-week old female BALB/c mice are obtained from the National Cancer Institute (Frederick, Md.). Cohorts of 3-5 mice per group are used for these experiments. Mice are shaved on the right flank and injected subcutaneously (s.c.) with 5×10^5 of either MOPC or MPC11 cells in […] of PBS to induce tumors.
In vivo treatment with AG-490 and IL-12. When tumors reach about 5 […] in diameter, AG-490 treatment of tumors is initiated and continued daily for 7-10 days. For MOPC tumors, injections of 0.85 mg/day of AG-490 are given intratumorally, supplemented with 0.5 mg/day of AG-490 i.p. For MPC11 tumors, the intratumoral treatment is halved while the i.p. dose remains the same. Control mice receive 50% DMSO vehicle alone in the same volume as the AG-490 treatment group. Recombinant IL-12 is given s.c. at either 100 ng or 200 ng every other day. Tumor growth is monitored daily by measuring two perpendicular tumor diameters with a caliper, and tumor volume was calculated according to the formula V=0.52*a*b(a+b)/2 (a=smallest superficial diameter; b=largest superficial diameter).

## N#C/C(=C\c1ccc(O)c(O)c1)C(=O)NCc1ccccc1 [AG490]
STAT3
  constitutive STAT3 activation (STAT3 DNA-binding activity): effectively blocked
MDA-MB-468 cells
  cell growth: inhibition of cell growth
[1]
  toxicity in animals: not detectably toxic
Bcl-xL; AG490, 24 hours
  bcl-x mRNA expression: significant reduction
Bcl-xL; AG490, 30 hours
  Bcl-xL protein levels: nearly absent
[2]
  apoptosis induced in Bcl-xL overexpressing cells: resistant
MOPC tumors; 5-mm pre-existing MOPC tumors, AG-490 0.85 mg/day intratumorally plus 0.5 mg/day i.p.
  time to complete regression of all treated tumors: 3 to 8 days
MOPC tumors; MOPC tumors, AG-490 treated mice
  tumor regrowth after regression: tumor regrowth is observed in all of the AG-490 treated mice except for one
